This is an account of results in patent publication US10392346B2, “Kinase inhibitors” (Topivert Pharma Limited, priority 2014, dated 2019).

The series deals with Jurkat cells. Description: Cell cytotoxicity assay (assay r). The format is cell-based, human. The settings on record: 24 hours. Here is the method: 1×10^5 Jurkat cells (immortalised human T lymphocytes) are added to the appropriate number of wells of a 96 well plate in 100 μL of media (RPMI supplemented with 10% foetal bovine serum). 1 μL of DMSO control (final concentration 1.0% v/v) or test compound (final concentration 20, 5 or 1 μg/mL) is added to the wells and incubated at 37° C., 5% CO2. After 24 hours, the plate is centrifuged at 1200 rpm for 3 minutes and the supernatant discarded. Cells are then resuspended in 150 μL (final concentration 7.5 μg/mL) of propidium iodide (PI) in PBS and incubated at 37° C., 5% CO2 for 15 minutes. After 15 minutes, cells are analysed by flow cytometry (BD accuri) using the FL3 window. The % viability is calculated as the % of cells that are PI negative in the test wells normalised to the DMSO control.

For `COc1cc(Nc2cc(Oc3ccc(NC(=O)Nc4cc(C(C)(C)C)cc(NS(C)(=O)=O)c4OC)c4ccccc34)ccn2)ccc1C(=O)NC[C@@H]1O[C@H](CO)[C@@H](O)[C@H](O)[C@H]1O` [17(co), 4-((4-((4-(3-(5-(tert-Butyl)-2-methoxy-3-(methylsulfonamido)phenyl)ureido)naphthalen-1-yl)oxy)pyridin-2-yl)amino)-2-methoxy-N-(((2S,3R,4R,5S,6R)-3,4,5-trihydroxy-6-(hydroxymethyl)tetrahydro-2H-pyran-2-yl)methyl)benzamide], the “% Viability at 1 μg/mL” value is reported as 74.3%.
